Values quoted from earlier work, collected in PMC8463262 (Acta Pharmaceutica Sinica. B, 2020).

System: PRMT5
Details: read-out: IC50 PRMT5

IC50: 6 µM
SMILES: CCNC(=O)NCCSC[C@H]1O[C@@H](n2cnc3c(N)ncnc32)[C@H](O)[C@@H]1O [DS437]
